Series [1] concerns AS1411 (DNA, G4) GGTGGTGGTGGTTGTGGTGGTGGTGG
Nature of the series: CD melting. Particulars: 10 mM KCl, 90 mM LiCl; 10 mM lithium cacodylate, pH 7.2; 2 molar equivalents C8; Tm without ligand 56.3 °C.

The test system of series [2] is U-AS1411 (DNA, G4, uracil in place of thymine at 12 and 13 (text: dT to rU substitutions)) GGTGGTGGTGGUUGTGGTGGTGGTGG
Nature of the series: CD melting. The settings on record: 10 mM KCl, 90 mM LiCl; 10 mM lithium cacodylate, pH 7.2; 2 molar equivalents C8; Tm without ligand 52.6 °C.

For series [3], the system named is 5'-FAM-AS1411-TAMRA-3' (DNA, G4) GGTGGTGGTGGTTGTGGTGGTGGTGG
Nature of the series: FRET melting. The settings on record: 10 mM KCl, 90 mM LiCl; 10 mM lithium cacodylate, pH 7.2; 1 µM C8, 0.2 µM DNA; no nucleolin; Tm 46.9 °C.

Series [4] relates to AS1411 (DNA, G4) GGTGGTGGTGGTTGTGGTGGTGGTGG
The experiment in a line: fluorescence titration of ligand, Hill model. Particulars: 100 mM KCl, 30 mM potassium phosphate; pH 7.2; 5 μM C8; apparent; Hill n 2.8; SD ≤ 1 × 10^−8 M.

Series [5] deals with U-AS1411 (DNA, G4, uracil in place of thymine at 12 and 13 (text: dT to rU substitutions)) GGTGGTGGTGGUUGTGGTGGTGGTGG
Nature of the series: fluorescence titration of ligand, Hill model. Particulars: 100 mM KCl, 30 mM potassium phosphate; pH 7.2; 5 μM C8; apparent; Hill n 2.5; SD ≤ 1 × 10^−8 M.

A further series concerns the target nucleolin (UniProt P19338). The experiment in a line: fluorescence titration. Particulars: Fluorescence titration: buffer for the nucleolin titration not stated separately (C8-aptamer titrations: 30 mM potassium phosphate pH 7.2, 100 mM KCl).
Sequence of UniProt P19338 (P19338 whole entry): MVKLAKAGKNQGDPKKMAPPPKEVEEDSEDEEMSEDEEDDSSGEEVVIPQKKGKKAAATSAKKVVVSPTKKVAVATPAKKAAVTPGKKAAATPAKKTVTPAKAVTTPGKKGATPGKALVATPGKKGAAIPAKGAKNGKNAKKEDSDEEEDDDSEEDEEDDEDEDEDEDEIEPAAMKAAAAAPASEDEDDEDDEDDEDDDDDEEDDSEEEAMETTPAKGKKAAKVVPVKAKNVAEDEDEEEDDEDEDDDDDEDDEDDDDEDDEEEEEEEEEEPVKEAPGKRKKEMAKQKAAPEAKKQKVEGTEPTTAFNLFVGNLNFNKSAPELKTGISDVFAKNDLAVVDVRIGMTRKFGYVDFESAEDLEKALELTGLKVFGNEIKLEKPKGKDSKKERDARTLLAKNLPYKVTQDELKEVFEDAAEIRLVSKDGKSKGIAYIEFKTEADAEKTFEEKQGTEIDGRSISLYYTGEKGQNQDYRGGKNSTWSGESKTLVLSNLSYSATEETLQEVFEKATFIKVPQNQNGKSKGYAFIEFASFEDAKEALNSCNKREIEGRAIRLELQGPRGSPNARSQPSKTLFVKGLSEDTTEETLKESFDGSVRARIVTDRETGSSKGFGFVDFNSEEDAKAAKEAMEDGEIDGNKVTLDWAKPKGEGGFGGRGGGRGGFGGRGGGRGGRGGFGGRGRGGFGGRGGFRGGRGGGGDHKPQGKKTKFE

The ΔTm is the change in melting temperature against a reference sample. The term Kd denotes the concentration at which binding is half-saturated. Higher therefore signals weaker binding.

Regarding `CN(C)c1ccc2cc3ccc(N(C)C)cc3[n+](CCCCCCCCNC(=O)c3ccc(I)cc3)c2c1`, the shift in melting temperature (ΔTm) stood at 28.4 ± 0.2 °C in series [1], 24.5 ± 0.4 °C in series [2] and 13.1 ± 0.8 °C in series [3]. Also, the KD in series [4] was 1290 nM; in series [5], 1370 nM.
For the molecule GGTGGTGGTGGTTGTGGTGGTGGTGG [Cy3-AS1411], the Kd with nucleolin (no C8, Cy3-AS1411 at 1 uM (Kd far below probe concentration)) is 0.00863 nM; in the series with nucleolin (with ligand C8, Cy3-AS1411 at 1 uM (Kd far below probe concentration)), 0.00638 nM.

For the origin of these results see publication PMC6538641 (2019).
